Key:
PLS10 cells xenograft = test: In vivo antitumor activity, PLS10 cells xenograft model; set-up: species or system male BALB/c-nu/nu mice; conditions: for Body Weights at the end of the experiment / Organ Weights, Kidneys / Organ Weights, Livers: mean ± S.E.; for Ki67-labeling index in tumor sections: control 63; for tumor volume: control 96 cm^3; for CD31-positive areas in tumors (angiogenesis): vs control, p < 0.05; for survival percentage of nude mice: male, BALB/c-nu/nu, mouse, in vivo, 5 weeks
Description: Figure 4 DZG inhibited cell proliferation and angiogenesis in vivo using PLS10 cells xenograft model. Mice were subcutaneously injected with PLS10 cells and treated two times per week with Cur or DZG (30 mg/kg body weight) for a period of 5 weeks. Tumor volume was measured twice a week and at the end of the study (a). The tumor masses were collected, sectioned and analyzed by immunohistochemistry to detect the Ki67-labeling index (b), % TUNEL (Terminal deoxynucleotidyl transferase dUTP nick end labeling)-positive cells (c) and % of the vessel area (d). Data presented in bar diagrams represent the mean ± S.E of eight mice in the control and nine mice in the treatment groups. ** p < 0.01 vs. control (one-way ANOVA, Dunnett’s multiple comparisons test, tested groups vs. control group).
The in vivo antitumor activity of DZG or Cur was examined using five-week-old male BALB/c-nu/nu mice. Mice were randomly divided into 3 groups, with up to 8 or 9 mice per group. The PLS10 cells (5.0 × 10^5) were subcutaneously injected into each mouse. The treatments were initiated 2 days after PLS10 cells injections, at which point, mice received 50% DMSO in normal saline solution (NSS) (vehicle control) at 30 mg/kg body weight of Cur or DZG via i.p. injection two times a week for five weeks. The body weight of each mouse was measured twice a week during the experiment. At week 5 of the experiment, mice were euthanized, and primary tumors and organs, such as lungs, liver, kidneys and lymph nodes, were removed and fixed in 10% buffered formalin. The tumor volume of each mouse was measured and calculated according to the following formulation: 0.52 × (axis1 × axis2 × axis3). A section of the primary tumor, lung, liver, and kidney specimens were collected and fixed in 10% buffered formalin. Tissue sections of the primary tumors and organs were stained with H&E.
The paraffin-embedded samples were sectioned and stained with rabbit monoclonal anti-Ki67 (SP6; Acris Antibodies GmbH, Herford, Germany) and rabbit polyclonal anti-CD31 antibodies (Abcam, Cambridge, UK) and sequentially stained with an anti-rabbit secondary antibody and avidin-biotin complex. The binding complexes were then visualized with diamino-benzidine. Subsequently, the sections were then counterstained lightly with hematoxylin for microscopic examination. The number of Ki67-staining cells for a minimum of 1000 cells was counted to determine the labeling index. For quantitative analysis of the vessel area, CD31-positive areas per the total area section were determined under microscopy (BZ-9000).
The paraffin-embedded samples were sectioned, and the degree of apoptosis in the tumor tissue was determined using a TUNEL assay (In situ Apoptosis Detection Kit; Takara Bio Inc., Ohtsu, Japan). The TUNEL assay was performed according to the manufacturer’s instructions. The number of TUNEL-labeled cells in a minimum of 1000 cells was counted in order to establish the labeling index.

[1] = system: cyclin D1 expression in PLS10 cells; test: Western blot analysis of cyclin D1 expression; assay type: cell-based, rat; conditions: 48 h, p < 0.01 vs control
Description: Cells were treated with Cur (0–20 μM) and DZG (0–200 μM) for 48 h. Cells were harvested for analysis of the cell cycle distribution by the Guava cycle (a,b), while cyclin D1 expression was determined by Western blot analysis (c,d). The level of protein expression was quantified by IMAGE J software. Data are presented as mean ± S.D. of three independent experiments. * p < 0.05 and ** p < 0.01 vs. control (one-way ANOVA, Dunnett’s multiple comparisons test, tested groups vs. control group). […]
Protein concentration was determined using the Bradford method (Thermo Fisher Scientific, Waltham, MA, USA). […]

[2] = 30 mg/kg i.p. two times a week for five weeks

Question: Which results are given for COc1cc(/C=C/C(=O)CC(=O)/C=C/c2ccc(O)c(OC)c2)ccc1O [Cur, Curcumin]?
Answer: Body Weights at the end of the experiment (PLS10 cells xenograft; [2]): 26.71 ± 1.26; Organ Weights, Kidneys (PLS10 cells xenograft; [2]): 0.40 ± 0.03; Organ Weights, Livers (PLS10 cells xenograft; [2]): 1.67 ± 0.10; Ki67-labeling index in tumor sections (PLS10 cells xenograft; [2]): 62%; tumor volume (PLS10 cells xenograft; [2]): 38 cm^3; CD31-positive areas in tumors (angiogenesis) (PLS10 cells xenograft; [2]): significantly reduced; survival percentage of nude mice (PLS10 cells xenograft): 100%; cyclin D1 expression ([1]; 15 and 20 µM): decreased

Question: What does the source list for COc1cc(/C=C/C(C)=O)ccc1O [DZG, (E)-4-(4-hydroxy-3-methoxyphenyl)-but-3-en-2-one]?
Answer: Body Weights at the end of the experiment (PLS10 cells xenograft; [2]): 27.12 ± 1.00; Organ Weights, Kidneys (PLS10 cells xenograft; [2]): 0.39 ± 0.03; Organ Weights, Livers (PLS10 cells xenograft; [2]): 1.60 ± 0.09; apoptotic cells (TUNEL-positive) in tumor sections (PLS10 cells xenograft; 30 mg/kg i.p. two times a week for five weeks, control 7%): 10%; Ki67-labeling index in tumor sections (PLS10 cells xenograft; [2]): 59%; tumor volume (PLS10 cells xenograft; [2]): 24 cm^3; CD31-positive areas in tumors (angiogenesis) (PLS10 cells xenograft; [2]): significantly reduced; survival percentage of nude mice (PLS10 cells xenograft): 100%; cyclin D1 expression ([1]; 150 and 200 µM): decreased

— article PMC7356390, “Dehydrozingerone, a Curcumin Analog, as a Potential Anti-Prostate Cancer Inhibitor In Vitro and In Vivo” (Molecules, 2020)
